Assay results reported in the NIST ThermoML archive (doi:10.1016/j.jct.2007.11.002).

Test: xn = mol fraction of the nth substance listed
Conditions: 101 kPa, Liquid; for viscosity: Capillary tube (Ostwald / Ubbelohde) method

CN1CCOCC1 [N-methylmorpholine] + Cc1ccccc1
Conditions | mass density, 298.15 K [kg/m3] | mass density, 303.15 K [kg/m3] | mass density, 313.15 K [kg/m3] | mass density, 323.15 K [kg/m3] | viscosity, 298.15 K [mPa·s] | viscosity, 303.15 K [mPa·s] | viscosity, 313.15 K [mPa·s] | viscosity, 323.15 K [mPa·s]
x2 = 0.0457 | 912.04 | 907.63 | 898.17 | 879.98 | 0.847 | 0.839 | 0.807 | 0.795
x2 = 0.1167 | 908.88 | 904.69 | 895.22 | 877.67 | 0.806 | 0.798 | 0.774 | 0.759
x2 = 0.1822 | 905.97 | 901.78 | 892.37 | 875.42 | 0.772 | 0.765 | 0.739 | 0.723
x2 = 0.2455 | 903.08 | 898.89 | 889.47 | 873.11 | 0.739 | 0.732 | 0.705 | 0.687
x2 = 0.2843 | 901.28 | 897.11 | 887.68 | 871.67 | 0.721 | 0.712 | 0.684 | 0.665
x2 = 0.3211 | 899.58 | 895.42 | 885.99 | 870.33 | 0.704 | 0.692 | 0.664 | 0.643
x2 = 0.3862 | 896.61 | 892.43 | 882.99 | 867.93 | 0.678 | 0.664 | 0.634 | 0.612
x2 = 0.4327 | 894.39 | 890.21 | 880.77 | 866.14 | 0.659 | 0.645 | 0.614 | 0.59
x2 = 0.4841 | 891.92 | 887.74 | 878.29 | 864.14 | 0.643 | 0.627 | 0.596 | 0.57
x2 = 0.5512 | 888.55 | 884.36 | 874.87 | 861.34 | 0.622 | 0.606 | 0.573 | 0.546
x2 = 0.5943 | 886.32 | 882.15 | 872.61 | 859.47 | 0.612 | 0.594 | 0.56 | 0.531
x2 = 0.6341 | 884.21 | 880.05 | 870.53 | 857.79 | 0.602 | 0.586 | 0.551 | 0.521
x2 = 0.6877 | 881.26 | 877.11 | 867.65 | 855.41 | 0.594 | 0.575 | 0.539 | 0.507
x2 = 0.7129 | 879.83 | 875.68 | 866.2 | 854.17 | 0.588 | 0.571 | 0.535 | 0.503
x2 = 0.7648 | 876.73 | 872.59 | 863.14 | 851.63 | 0.583 | 0.561 | 0.524 | 0.488
x2 = 0.7895 | 875.15 | 871.01 | 861.57 | 850.28 | 0.581 | 0.559 | 0.521 | 0.487
x2 = 0.8444 | 871.87 | 867.75 | 858.32 | 847.56 | 0.571 | 0.549 | 0.51 | 0.474
x2 = 0.8873 | 869.14 | 865.03 | 855.6 | 845.26 | 0.569 | 0.543 | 0.503 | 0.458
x2 = 0.9348 | 866.19 | 862.08 | 852.67 | 842.77 | 0.558 | 0.536 | 0.49 | 0.444
x2 = 0.9741 | 863.67 | 859.57 | 850.02 | 840.51 | 0.554 | 0.527 | 0.477 | 0.429
